Assay results: patent US10294202B2, “Pyrrolidinones as herbicides” (FMC Corporation, priority 2013, dated 2019)

Assays:
ragweed = assay: Test A pre-/postemergence herbicide test; type: in vivo, Ambrosia elatior
From the text: (§1) Seeds of plant species selected from bamyardgrass (Echinochloa crus-galli), kochia (Kochia scoparia), ragweed (common ragweed, Ambrosia elatior), ryegrass, Italian (Italian ryegrass, Lolium multiflorum), crabgrass, large (large crabgrass Digitaria sanguinalis), giant foxtail (Setaria faberii), morningglory (Ipomoea spp.), pigweed (Amaranthus retroflexus), velvetleaf (Abutilon theophrasti), wheat (Triticum aestivum), and corn (Zea mays) were planted into a blend of loam soil and sand and treated preemergence with a directed soil spray using test chemicals formulated in a non-phytotoxic solvent mixture which included a surfactant. At the same time, plants selected from these crop and weed species and also blackgrass (Alopecurus myosuroides), and galium (catchweed bedstraw, Galium aparine) were planted in pots containing the same blend of loam soil and sand and treated with postemergence applications of test chemicals formulated in the same manner. Plants ranged in height from 2 to 10 cm and were in the one- to two-leaf stage for the postemergence treatment. Treated plants and untreated controls were maintained in a greenhouse for approximately 10 days, after which time all treated plants were compared to untreated controls and visually evaluated for injury. Plant response ratings, summarized in Table A, are based on a 0 to 100 scale where 0 is no effect and 100 is complete control. A dash (-) response means no test result.

pigweed = assay: Test A pre-/postemergence herbicide test; type: in vivo, Amaranthus retroflexus
Summary of the method: (§2)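 Both application timings used compounds in a non-phytotoxic solvent plus surfactant. Pre-emergence: soil sprayed directly after seeding into loam/sand. Post-emergence: foliage of 2–10 cm seedlings (1–2 leaves) sprayed. Injury rated ~10 days later, 0–100.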

corn = assay: Test A pre-/postemergence herbicide test; type: in vivo, Zea mays; details: Postemergence
Summary of the method: as §2

ryegrass, Italian = assay: Test A pre-/postemergence herbicide test; type: in vivo, Lolium multiflorum
From the text: as §1

barnyardgrass = assay: Test A pre-/postemergence herbicide test; type: in vivo, Echinochloa crus-galli
Summary of the method: as §2

blackgrass = assay: Test A postemergence herbicide test; type: in vivo, Alopecurus myosuroides
Summary of the method: (§3)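 Plants at the one- to two-leaf stage, 2–10 cm tall, grown in loam/sand pots, received postemergence sprays of the test chemicals. After about 10 days in the greenhouse, injury was scored visually against untreated controls on a 0–100 scale (0 none, 100 complete control).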

wheat = assay: Test A pre-/postemergence herbicide test; type: in vivo, Triticum aestivum; details: Postemergence; for Plant response rating, Wheat: 125 g ai/ha; for Wheat plant response rating (0 to 100 scale, 0 is no effect, 100 is complete control): 500 g ai/ha
Summary of the method: as §2

galium = assay: Test A postemergence herbicide test; type: in vivo, Galium aparine; details: for Plant response rating, Galium: 125 g ai/ha; for Galium plant response rating (0 to 100 scale, 0 is no effect, 100 is complete control): 500 g ai/ha
Summary of the method: as §3

kochia = assay: Test A pre-/postemergence herbicide test; type: in vivo, Kochia scoparia
Summary of the method: as §2

giant foxtail = assay: Test A pre-/postemergence herbicide test; type: in vivo, Setaria faberii
Summary of the method: as §2

[1] = 125 g ai/ha, visual rating, 0 to 100 scale, 0 no effect, 100 complete control, approximately 10 days, preemergence
[2] = Postemergence, 125 g ai/ha, 0 to 100 scale, 0 is no effect, 100 is complete control
[3] = preemergence, 500 g ai/ha, 0 to 100 scale, 0 is no effect and 100 is complete control
[4] = 125 g ai/ha, 0 to 100 scale, 0 is no effect, 100 is complete control
[5] = 0 to 100 scale, 0 is no effect, 100 is complete control
[6] = Postemergence, 125 g ai/ha, visual rating on 0 to 100 scale (0 no effect, 100 complete control), approx. 10 days
[7] = Preemergence, 125 g ai/ha, 0 to 100 scale where 0 is no effect and 100 is complete control
[8] = Preemergence, 500 g ai/ha, visual rating on 0 to 100 scale (0 no effect, 100 complete control)
[9] = 125 g ai/ha, visual rating on 0 to 100 scale (0 no effect, 100 complete control), approx. 10 days
[10] = 500 g ai/ha, 0 to 100 scale (0 no effect, 100 complete control)
[11] = Postemergence, 500 g ai/ha, 0 to 100 scale (0 no effect, 100 complete control)
[12] = visual rating on 0 to 100 scale (0 no effect, 100 complete control), approx. 10 days

O=C1NCC(c2ccc(OC(F)(F)C(F)F)cc2)C1C(=O)Nc1ccc(F)c(F)c1F (racemic) [Compound 174]
Plant response rating, Ragweed (ragweed; [1]): 0
Plant response rating, Ragweed (ragweed; [2]): 0
Ragweed plant response rating (0 to 100 scale, 0 is no effect, 100 is complete control) (ragweed; Postemergence, 500 g ai/ha): 0
Plant response rating, Ragweed (ragweed; [3]): 0
Plant response rating, Pigweed (pigweed; [1]): 0
Plant response rating, Pigweed (pigweed; [2]): 0
Pigweed plant response rating (0 to 100 scale, 0 is no effect, 100 is complete control) (pigweed; Postemergence, 500 g ai/ha): 0
Plant response rating, Pigweed (pigweed; [3]): 0
Plant response rating, Corn (corn; [4]): 0
Corn plant response rating (0 to 100 scale, 0 is no effect, 100 is complete control) (corn; 500 g ai/ha): 0
Plant response rating, Ryegrass, Italian (ryegrass, Italian; [1]): 0
Plant response rating, Ryegrass, Italian (ryegrass, Italian; [2]): 0
Ryegrass, Italian plant response rating (0 to 100 scale, 0 is no effect, 100 is complete control) (ryegrass, Italian; Postemergence, 500 g ai/ha): 0
Plant response rating, Ryegrass, Italian (ryegrass, Italian; [3]): 0
Plant response rating, Barnyardgrass (barnyardgrass; [1]): 0
Plant response rating, Barnyardgrass (barnyardgrass; [2]): 0
Barnyardgrass plant response rating (0 to 100 scale, 0 is no effect, 100 is complete control) (barnyardgrass; Postemergence, 500 g ai/ha): 20
Plant response rating, Barnyardgrass (barnyardgrass; [3]): 20
Plant response rating, Blackgrass (blackgrass; [4]): 0
Blackgrass plant response rating (0 to 100 scale, 0 is no effect, 100 is complete control) (blackgrass; 500 g ai/ha): 0
Plant response rating, Wheat (wheat; [5]): 0
Wheat plant response rating (0 to 100 scale, 0 is no effect, 100 is complete control) (wheat): 0
Plant response rating, Galium (galium; [5]): 0
Galium plant response rating (0 to 100 scale, 0 is no effect, 100 is complete control) (galium): 0
Plant response rating, Kochia (kochia; [1]): 0
Plant response rating, Kochia (kochia; [2]): 0
Kochia plant response rating (0 to 100 scale, 0 is no effect, 100 is complete control) (kochia; Postemergence, 500 g ai/ha): 0
Plant response rating, Kochia (kochia; [3]): 20
Plant response rating, Foxtail, Giant (giant foxtail; [1]): 30
Plant response rating, Foxtail, Giant (giant foxtail; [2]): 20
Foxtail, Giant plant response rating (0 to 100 scale, 0 is no effect, 100 is complete control) (giant foxtail; Postemergence, 500 g ai/ha): 30
Plant response rating, Foxtail, Giant (giant foxtail; [3]): 50

Cc1ccc(F)c(NC(=O)C2C(=O)NCC2c2cccc(C(F)(F)F)c2)c1 (racemic) [Compound 183]
Plant response rating, Ragweed (ragweed; [1]): 0
Plant response rating, Ragweed (ragweed; [2]): 0
Ragweed plant response rating (0 to 100 scale, 0 is no effect, 100 is complete control) (ragweed; Postemergence, 500 g ai/ha): 0
Plant response rating, Ragweed (ragweed; [3]): 0
Plant response rating, Pigweed (pigweed; [1]): 0
Plant response rating, Pigweed (pigweed; [2]): 0
Pigweed plant response rating (0 to 100 scale, 0 is no effect, 100 is complete control) (pigweed; Postemergence, 500 g ai/ha): 0
Plant response rating, Pigweed (pigweed; [3]): 0
Plant response rating, Corn (corn; [4]): 0
Corn plant response rating (0 to 100 scale, 0 is no effect, 100 is complete control) (corn; 500 g ai/ha): 0
Plant response rating, Ryegrass, Italian (ryegrass, Italian; [1]): 0
Plant response rating, Ryegrass, Italian (ryegrass, Italian; [2]): 0
Ryegrass, Italian plant response rating (0 to 100 scale, 0 is no effect, 100 is complete control) (ryegrass, Italian; Postemergence, 500 g ai/ha): 0
Plant response rating, Ryegrass, Italian (ryegrass, Italian; [3]): 0
Plant response rating, Barnyardgrass (barnyardgrass; [1]): 0
Plant response rating, Barnyardgrass (barnyardgrass; [2]): 0
Barnyardgrass plant response rating (0 to 100 scale, 0 is no effect, 100 is complete control) (barnyardgrass; Postemergence, 500 g ai/ha): 0
Plant response rating, Barnyardgrass (barnyardgrass; [3]): 0
Plant response rating, Blackgrass (blackgrass; [4]): 0
Blackgrass plant response rating (0 to 100 scale, 0 is no effect, 100 is complete control) (blackgrass; 500 g ai/ha): 0
Plant response rating, Wheat (wheat; [5]): 0
Wheat plant response rating (0 to 100 scale, 0 is no effect, 100 is complete control) (wheat): 0
Plant response rating, Galium (galium; [5]): 0
Galium plant response rating (0 to 100 scale, 0 is no effect, 100 is complete control) (galium): 0
Plant response rating, Kochia (kochia; [1]): 0
Plant response rating, Kochia (kochia; [2]): 0
Kochia plant response rating (0 to 100 scale, 0 is no effect, 100 is complete control) (kochia; Postemergence, 500 g ai/ha): 0
Plant response rating, Kochia (kochia; [3]): 0
Plant response rating, Foxtail, Giant (giant foxtail; [1]): 0
Plant response rating, Foxtail, Giant (giant foxtail; [2]): 0
Foxtail, Giant plant response rating (0 to 100 scale, 0 is no effect, 100 is complete control) (giant foxtail; Postemergence, 500 g ai/ha): 0
Plant response rating, Foxtail, Giant (giant foxtail; [3]): 0

Cc1cc(NC(=O)C2C(=O)NCC2c2cccc(C(F)(F)F)c2)ccc1F (racemic) [Compound 185]
Plant response rating, Ragweed (ragweed; [1]): 0
Plant response rating, Ragweed (ragweed; [2]): 0
Ragweed plant response rating (0 to 100 scale, 0 is no effect, 100 is complete control) (ragweed; Postemergence, 500 g ai/ha): 0
Plant response rating, Ragweed (ragweed; [3]): 0
Plant response rating, Pigweed (pigweed; [1]): 0
Plant response rating, Pigweed (pigweed; [2]): 0
Pigweed plant response rating (0 to 100 scale, 0 is no effect, 100 is complete control) (pigweed; Postemergence, 500 g ai/ha): 0
Plant response rating, Pigweed (pigweed; [3]): 20
Plant response rating, Corn (corn; [4]): 0
Corn plant response rating (0 to 100 scale, 0 is no effect, 100 is complete control) (corn; 500 g ai/ha): 20
Plant response rating, Ryegrass, Italian (ryegrass, Italian; [1]): 0
Plant response rating, Ryegrass, Italian (ryegrass, Italian; [2]): 0
Ryegrass, Italian plant response rating (0 to 100 scale, 0 is no effect, 100 is complete control) (ryegrass, Italian; Postemergence, 500 g ai/ha): 0
Plant response rating, Ryegrass, Italian (ryegrass, Italian; [3]): 20
Plant response rating, Barnyardgrass (barnyardgrass; [1]): 40
Plant response rating, Barnyardgrass (barnyardgrass; [2]): 40
Barnyardgrass plant response rating (0 to 100 scale, 0 is no effect, 100 is complete control) (barnyardgrass; Postemergence, 500 g ai/ha): 80
Plant response rating, Barnyardgrass (barnyardgrass; [3]): 70
Plant response rating, Blackgrass (blackgrass; [4]): 0
Blackgrass plant response rating (0 to 100 scale, 0 is no effect, 100 is complete control) (blackgrass; 500 g ai/ha): 20
Plant response rating, Wheat (wheat; [5]): 0
Wheat plant response rating (0 to 100 scale, 0 is no effect, 100 is complete control) (wheat): 20
Plant response rating, Galium (galium; [5]): 0
Galium plant response rating (0 to 100 scale, 0 is no effect, 100 is complete control) (galium): 0
Plant response rating, Kochia (kochia; [1]): 0
Plant response rating, Kochia (kochia; [2]): 0
Kochia plant response rating (0 to 100 scale, 0 is no effect, 100 is complete control) (kochia; Postemergence, 500 g ai/ha): 0
Plant response rating, Kochia (kochia; [3]): 40
Plant response rating, Foxtail, Giant (giant foxtail; [1]): 70
Plant response rating, Foxtail, Giant (giant foxtail; [2]): 20
Foxtail, Giant plant response rating (0 to 100 scale, 0 is no effect, 100 is complete control) (giant foxtail; Postemergence, 500 g ai/ha): 80
Plant response rating, Foxtail, Giant (giant foxtail; [3]): 90

CC(C)(C)c1cccc(C2CNC(=O)C2C(=O)Nc2ccccc2F)c1 (centres unmarked) [Compound 347]
Plant response rating, Ragweed (ragweed; [6]): 0
Plant response rating, Ragweed (ragweed; [7]): 0
Ragweed plant response rating (ragweed; [8]): 0
Plant response rating, Pigweed (pigweed; [6]): 0
Plant response rating, Pigweed (pigweed; [7]): 0
Pigweed plant response rating (pigweed; [8]): 0
Plant response rating, Corn (corn; [9]): 0
Plant response rating, Corn (corn; [10]): 0
Plant response rating, Ryegrass, Italian (ryegrass, Italian; [6]): 0
Plant response rating, Ryegrass, Italian (ryegrass, Italian; [7]): 0
Ryegrass, Italian plant response rating (ryegrass, Italian; [8]): 0
Plant response rating, Barnyardgrass (barnyardgrass; [6]): 50
Plant response rating, Barnyardgrass (barnyardgrass; [11]): 50
Plant response rating, Barnyardgrass (barnyardgrass; [7]): 50
Barnyardgrass plant response rating (barnyardgrass; [8]): 90
Plant response rating, Blackgrass (blackgrass; [9]): 0
Plant response rating, Blackgrass (blackgrass; [10]): 0
Plant response rating, Wheat (wheat; [12]): 0
Plant response rating, Galium (galium; [12]): 0
Plant response rating, Kochia (kochia; [6]): 0
Plant response rating, Kochia (kochia; [7]): 0
Kochia plant response rating (kochia; [8]): 0
Plant response rating, Foxtail, Giant (giant foxtail; [6]): 20
Plant response rating, Foxtail, Giant (giant foxtail; [11]): 20
Plant response rating, Foxtail, Giant (giant foxtail; [7]): 20
Foxtail, Giant plant response rating (giant foxtail; [8]): 40
